Legend:
[1] = biological target: human MT1 receptor membrane protein (Homo sapiens (Human), UniProt P48039); assay: MT1 receptor binding test ([3H]-Melotonin competition)
Method: (§1) The receptors included a MT1/MT2 receptor and a 5-HT2C receptor. The test was divided into two parts: prescreening and rescreening. The results of prescreening were expressed as the percentage of binding, and the results of rescreening were expressed as the IC50 value (in M, i.e., mol/L).
(§2) (3) Tris-HCl buffer formulation: 50 mM Tris-HCl Buffer, 1 mM EDTA, 5 mM MgCl2, 0.1% NaN3, and then a certain proportion of PMSF was added to make pH 7.4.
(§3) (4) The example compound to be tested was dissolved in DMSO and formulated as a stock solution of 10^−2 M, and then diluted with distilled water to a concentration gradient of […]. The prescreening of the MT receptor binding test was performed at the concentration of 10^−5 M; the prescreening of the 5-HT2C receptor binding test was performed at the concentrations of 10^−5 and 10^−7 M.
(§4) The statistical analysis was performed using GraphPad Prism 5.0 software. The formula for receptor binding test was: inhibition (%)=[(total CPM of binding−CPM of tube with drug)/(total CPM of binding−non-specific CPM)]×100%, wherein CPM was count of a radioactive intensity.
(§5) 10 μL of receptor membrane protein MT1 or MT2 was added to all the tubes. In non-specific binding tubes, 50 μL of a corresponding unlabeled ligand Ago at a concentration of 10^4 M was added to a final concentration of 10 μM, and pre-reacted for 30 minutes. In test tubes, 30 μL of test drug (MT1: a concentration of 10^4-10^−10 M, MT2: a concentration of […]) was added, respectively; all tubes were added with 40 μL [^3H]-Melotonin, respectively. […] The filter paper was taken out and dried by baking, and then placed in a scintillation bottle. 1 mL of the scintillation liquid was added, and the radioactive intensity was measured by a liquid scintillation counter.

[2] = system: chronic stress rat; assay: Chronic unpredictable stress model of rat: sucrose preference test; assay type: in vivo; details: for Sucrose preference (%) Before modeling: baseline before modeling; for Sucrose preference (%) After 4 weeks of administration: stress rats
Method: (§6) Animals: SD rats, male, weighing 150-180 g, SPF grade.
(§7) Formulation and administration mode of drugs: All drugs for the test were suspended and dispersed with a 0.5% aqueous solution of CMC-Na, and shaken well before use. The rats were administered by i.g. at a volume of 10 mL/kg.
(§8) Rats were acclimatized for 3 days after purchase. First, 48 h of sucrose training was performed. After the training, a sucrose baseline test was performed. The rats were randomly and evenly grouped according to sucrose preference. Then, (dl) a 4-week chronic unpredictable stress (CUS) procedure was performed with the following stress methods: (1) food deprivation (fasting); (2) water deprivation; (3) stroboflash; (4) overnight illumination; (5) wet feeding (200 ml of water was added to 150 g of sawdust bedding); (6) noise stimulation (110 dB), 1 h; (7) swimming in cold water (the water temperature was 10° C.); (8) cage tilt (45 degrees of inclination); (9) tail pinch (at 1 cm away from the tail root) for 6 min; (10) restraint for 1-2 h. One of the above stress methods was used randomly every day, but water deprivation and fasting were separated. The corresponding drugs (including the blank control group and the positive drug group) were given 1 h before the stress in the morning every day. Behavior test was performed after the end of the chronic stress. d25, sucrose preference; d28, open-field; d31, novelty-suppressed feeding test.
Rats were acclimatized for 3 days after purchase. The rats were trained to give sucrose aqueous solution for 48 h without food and water supply, only 1% aqueous solution of sucrose was given for the first 24 h, and 1% aqueous solution of sucrose and tap water were simultaneously given for the next 24 h. After the end of the training, the rats were fed with normal food and water for 3 days, and then a sucrose preference baseline was determined: after fasting and water deprivation for 14 h, rats were allowed to drink freely two different bottles of water, one of which was 1% aqueous solution of sucrose and the other was tap water. The intakes (g) of rats from these two bottles within 1 hour were measured to calculate the sucrose preference. Sucrose preference (%)=intake of aqueous solution of sucrose/(intake of aqueous solution of sucrose+intake of tap water)×100%. On the 25th day of the stress program, the same method was used to perform the sucrose preference test again to calculate the sucrose preference.

[3] = biological target: human MT2 receptor membrane protein (Homo sapiens (Human), UniProt P49286); assay: MT2 receptor binding test ([3H]-Melotonin competition)
human MT2 receptor membrane protein, sequence (P49286 whole entry): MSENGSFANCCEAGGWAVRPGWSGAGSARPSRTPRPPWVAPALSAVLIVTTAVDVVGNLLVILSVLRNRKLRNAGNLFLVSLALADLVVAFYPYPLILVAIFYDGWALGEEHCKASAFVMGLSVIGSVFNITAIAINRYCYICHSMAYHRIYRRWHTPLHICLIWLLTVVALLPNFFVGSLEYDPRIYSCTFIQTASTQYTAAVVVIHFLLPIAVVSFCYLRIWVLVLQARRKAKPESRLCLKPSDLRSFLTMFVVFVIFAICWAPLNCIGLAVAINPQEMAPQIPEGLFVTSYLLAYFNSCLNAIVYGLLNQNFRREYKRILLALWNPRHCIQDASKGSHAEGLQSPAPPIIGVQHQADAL
Method: as §1, §2, §3, §4, §5

[4] = system: chronic stress rat; assay: Chronic unpredictable stress model of rat: open-field activity test; assay type: in vivo; details: stress rats, day 28, 5 min
Method: as §6, §7, §8
On the 28th day of the stress program, the rats were placed in the middle compartment of an open chamber, and a 60 W light bulb was placed 45 cm directly above them. The activities of the rats were observed within 5 minutes, including the number of times crossing a compartment horizontally (the number of times crossing into an adjacent compartment with three or more claws), and the number of times rearing (the number of times the forelimbs are more than 1 cm off the ground). Note: the test environment of the test should be kept as quiet as possible; the rats should be placed in the same position and direction each time; and the animal's excretion should be removed after each test.

[5] = cited from earlier work
[6] = biological target: CYP2C9 (Homo sapiens (Human), UniProt P11712); details: first-pass effect of the liver; cited from earlier work
CYP2C9, sequence (P11712 whole entry): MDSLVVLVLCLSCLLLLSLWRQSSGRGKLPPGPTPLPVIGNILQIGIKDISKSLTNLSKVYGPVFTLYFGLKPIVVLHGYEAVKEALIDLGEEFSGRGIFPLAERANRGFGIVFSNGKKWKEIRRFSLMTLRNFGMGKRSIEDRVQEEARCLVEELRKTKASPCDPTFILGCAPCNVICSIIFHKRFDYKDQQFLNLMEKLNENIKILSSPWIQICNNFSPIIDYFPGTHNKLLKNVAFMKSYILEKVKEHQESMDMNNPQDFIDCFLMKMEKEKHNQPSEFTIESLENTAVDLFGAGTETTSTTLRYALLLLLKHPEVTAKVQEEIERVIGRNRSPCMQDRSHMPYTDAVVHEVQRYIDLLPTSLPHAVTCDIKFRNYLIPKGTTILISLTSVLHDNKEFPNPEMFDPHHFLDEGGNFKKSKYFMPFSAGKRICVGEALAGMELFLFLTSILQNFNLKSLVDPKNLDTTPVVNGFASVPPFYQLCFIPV

[7] = biological target: CYP1A2 (Homo sapiens (Human), UniProt P05177); details: cited from earlier work
CYP1A2, sequence (P05177 whole entry): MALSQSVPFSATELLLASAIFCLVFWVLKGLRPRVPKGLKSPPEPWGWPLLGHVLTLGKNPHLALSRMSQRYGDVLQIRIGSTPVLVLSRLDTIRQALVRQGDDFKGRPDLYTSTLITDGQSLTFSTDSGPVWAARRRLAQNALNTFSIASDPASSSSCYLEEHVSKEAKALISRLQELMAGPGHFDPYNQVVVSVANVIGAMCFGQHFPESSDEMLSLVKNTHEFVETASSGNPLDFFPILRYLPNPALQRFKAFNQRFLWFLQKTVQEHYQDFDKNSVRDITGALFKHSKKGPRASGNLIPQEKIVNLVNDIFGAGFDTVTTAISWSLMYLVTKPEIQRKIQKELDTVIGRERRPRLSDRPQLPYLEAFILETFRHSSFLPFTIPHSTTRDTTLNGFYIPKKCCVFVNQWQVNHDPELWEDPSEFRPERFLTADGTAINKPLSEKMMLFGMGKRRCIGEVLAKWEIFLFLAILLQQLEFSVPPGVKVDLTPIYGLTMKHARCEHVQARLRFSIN

[8] = background statement; cited from earlier work

human MT1 receptor membrane protein, sequence (P48039 whole entry): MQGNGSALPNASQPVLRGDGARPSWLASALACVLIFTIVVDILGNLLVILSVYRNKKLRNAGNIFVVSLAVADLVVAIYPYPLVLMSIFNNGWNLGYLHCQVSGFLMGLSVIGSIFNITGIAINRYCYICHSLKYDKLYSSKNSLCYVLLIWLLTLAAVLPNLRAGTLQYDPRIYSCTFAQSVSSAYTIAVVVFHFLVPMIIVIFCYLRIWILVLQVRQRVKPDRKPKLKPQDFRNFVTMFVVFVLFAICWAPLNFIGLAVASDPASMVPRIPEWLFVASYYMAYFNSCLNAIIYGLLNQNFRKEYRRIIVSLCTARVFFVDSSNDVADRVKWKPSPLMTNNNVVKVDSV

Structure (SMILES) | Sucrose preference (%) Before modeling ([2]; group later dosed 20 mg/kg) [%] | Sucrose preference (%) After 4 weeks of administration ([2]; 10 mg/kg i.g. daily) [%] | Sucrose preference (%) After 4 weeks of administration ([2]; 20 mg/kg i.g. daily) [%] | Sucrose preference (%) After 4 weeks of administration ([2]; 40 mg/kg i.g. daily) [%] | Number of times crossing a compartment horizontally ([4]; 10 mg/kg i.g. daily) | Number of times rearing ([4]; 10 mg/kg i.g. daily) | Number of times crossing a compartment horizontally ([4]; 20 mg/kg i.g. daily) | Number of times rearing ([4]; 20 mg/kg i.g. daily) | Number of times crossing a compartment horizontally ([4]; 40 mg/kg i.g. daily) | Number of times rearing ([4]; 40 mg/kg i.g. daily) | also measured
[2H]C([2H])([2H])Oc1cc2c(CCNC(C)=O)cccc2cc1Cl [Example 1, N-(2-(6-chloro-7-deuteromethoxy-naphthalen-1-yl)ethyl)acetamide] | 60.1 ± 4.4 | 78.4 ± 4.4 | 78.8 ± 6.1 | 83.3 ± 1.9 | 36.4 ± 4.2 | 14.6 ± 1.7 | 36.5 ± 2.9 | 15.9 ± 1.1 | 34.9 ± 3.0 | 17 ± 1.5 | MT1 binding ratio (I %) ([1]; prescreening, 10^−5 M): 84%; IC50 ([1]; rescreening): 450 ± 260 pM; Sucrose preference (%) Before modeling ([2]; group later dosed 5 mg/kg): 55.5 ± 7.8%; Sucrose preference (%) After 4 weeks of administration ([2]; 5 mg/kg i.g. daily): 80.4 ± 3.1 %; MT2 binding ratio (I %) ([3]; prescreening, 10^−5 M): 98%; IC50 ([3]; rescreening): 720 ± 130 pM; Number of times crossing a compartment horizontally ([4]; 5 mg/kg i.g. daily): 36.8 ± 4.4; Number of times rearing ([4]; 5 mg/kg i.g. daily): 15.1 ± 1.3
COc1ccc2cccc(CCNC(C)=O)c2c1 [Agomelatine, reference compound] | 65.6 ± 10.1 | 84.3 ± 3.6 | 66.6 ± 6.7 | 76.1 ± 5.3 | 33.4 ± 4.2 | 18.1 ± 1.1 | 33.9 ± 2.4 | 16.7 ± 1.8 | 38.9 ± 3.6 | 17.3 ± 1.1 | patients with an increase in ALT/AST (three times above the normal upper limit) [5]: more than 1%; share metabolized by CYP2C9 [6]: about 10%; share metabolized by CYP1A2 [7]: about 90%; absolute bioavailability [8]: below 5%; oral absorption [8]: over 80%

Reference: US11980598B2, “N-(2-(substituted-naphth-1-yl)ethyl) substituted amide compound, preparation and uses thereof” (BEIJING GREATWAY PHARMACEUTICAL TECHNOLOGY CO., LTD., priority 2017, dated 2024)
